# Results taken from PMC12888871, “Population pharmacokinetics of caspofungin in critically ill Chinese children: a prospective observational study” (Antimicrobial Agents and Chemotherapy, 2025).
# Where two headings read alike, the source gives them in different places.
# What was measured:
# [1] = First-stage population pharmacokinetic model from intensive sampling (n = 14), used for optimal sampling design; assay type: in vivo, human (critically ill children)
# Experimental: (§1) This study incorporated data from two study stages: the intensive sampling stage, followed by a sparse sampling stage (Fig. S1). In the first stage, the sampling time points were scheduled at pre-dose, 1, 2, 4, 8 h (if feasible) and 16 h (if feasible) following the most recent dose (the sixth administration after the first dose). The optimal sparse sampling design was then conducted to minimize the number of sampling points based on the defined constraint conditions. The designed sparse sampling time windows were pre-dose (0–1 h), 0.5–1.5, 6–7, and 23–24 h after the prior dose (the sixth administration after the first dose). The detailed optimal design process was described in the Supplemental material.
# During the optimized sampling process, explicit constraint conditions were defined. In the second phase of our study, approximately 40 participants were to be recruited to receive a daily 1-hour intravenous infusion of caspofungin, with a BSA-based dosing strategy. Sampling was planned to take place within one single day after reaching steady-state levels. Given that the study subjects were pediatric patients, we aimed to minimize the number of sampling points.
# Design software tools, including $DESIGN option in NONMEM and PopED (version 0.6.0, R package), were utilized to explore design elements such as sampling size, and sampling times. These tools evaluated uncertainties in PK parameter estimates based on the current sampling scheme and population pharmacokinetic (PPK) model. The designs were evaluated to ensure the precise estimation of typical PK parameters, defined as a relative standard error (RSE) of less than 50%.
# Figure S1. Study flow diagram. In the first stage of the study, a population pharmacokinetic model was developed based on intensive sampling data collected from the prospective clinical study conducted among pediatrics with a small sample size in ICU. Secondly, design software tools, including $DESIGN in NONMEM and PopED, were utilized to optimize sampling design. During the third phase in our study, the optimized sampling scheme would be applied to a larger-scale study.
# [2] = test system: positive fungal culture (C. parapsilosis, C. albicans, C. tropicalis, C. guilliermondii); assay: Fungal culture conversion during caspofungin therapy; assay type: in vivo, human (critically ill children); settings: thirteen patients with positive fungal culture during caspofungin infusion
# Experimental: A prospective clinical study was conducted among pediatrics in PICU from Children’s Hospital of Fudan University from 1 November 2022 to 30 December 2024. Children aged 3 months to 18 years who were admitted to PICU and received caspofungin therapy were eligible for inclusion. The study population encompassed critically ill children, including but not limited to those with liver insufficiency, hypoproteinemia, ECMO treatment, continuous renal replacement therapy (CRRT), or sepsis. Eligible subjects were administered a once-daily, 1-h intravenous infusion of caspofungin, following a body surface area (BSA)-based dosage regimen: a loading dose (LD) of 70 mg/m² (not to exceed 70 mg) on the first day, followed by 50 mg/m² (not exceed 70 mg) for maintenance dose (MD). BSA was calculated using the Mosteller formula: […] ([14]). All participants were provided written consent prior to participating in the study (US Clinical Trials, NCT04961593). Demographic and baseline clinical laboratory data were collected from the medical records, including age, sex, body weight, height, BSA, liver function, renal function, and various biomarkers reflecting immune system status. Information on bacterial cultures was also collected from microbiological laboratory reports. […]
# [3] = Population pharmacokinetic analysis of total plasma caspofungin in PICU patients (final two-compartment model, NONMEM, n = 29, 138 samples); assay type: in vivo, human (critically ill Chinese children); settings: for AUCss,24h, range / AUC(0-t): Bayesian posterior estimates; for AUC(0-t): plasma, iv, read-out: AUCss,24h, median
# Experimental: A prospective clinical study was conducted among pediatrics in PICU from Children’s Hospital of Fudan University from 1 November 2022 to 30 December 2024. Children aged 3 months to 18 years who were admitted to PICU and received caspofungin therapy were eligible for inclusion. The study population encompassed critically ill children, including but not limited to those with liver insufficiency, hypoproteinemia, ECMO treatment, continuous renal replacement therapy (CRRT), or sepsis. Eligible subjects were administered a once-daily, 1-h intravenous infusion of caspofungin, following a body surface area (BSA)-based dosage regimen: a loading dose (LD) of 70 mg/m² (not to exceed 70 mg) on the first day, followed by 50 mg/m² (not exceed 70 mg) for maintenance dose (MD). BSA was calculated using the Mosteller formula: […] ([14]). All participants were provided written consent prior to participating in the study (US Clinical Trials, NCT04961593). Demographic and baseline clinical laboratory data were collected from the medical records, including age, sex, body weight, height, BSA, liver function, renal function, and various biomarkers reflecting immune system status. Information on bacterial cultures was also collected from microbiological laboratory reports. The biochemical measurements were derived from the most recent clinical laboratory results available within 7 days prior to the first caspofungin administration, reflecting the patient’s baseline physiological status.
# Total caspofungin plasma concentrations were quantified using a liquid chromatography tandem mass spectrometry (LC-MS/MS) method. Blood samples were collected with EDTA-K2 as anticoagulant, and plasma was obtained by centrifugation at 4,000 g for 5 min and stored at −80°C until analysis, which would be performed within 30 days. The analysis was performed using the LC-40AD chromatographic system (Shimazu, Tokyo, Japan) combined with a 6500+ Triple Quad mass spectrometry system (AB Sciex, Framingham, USA). The separation is achieved on a Kinetex C18 column (2.1 × 50 mm, 2.6 μm) using a mobile phase composed of buffer (0.1% [vol/vol] formic acid and 5 mM ammonium acetate) and methanol (0.1% [vol/vol] formic acid). A volume of 40 μL of each plasma sample was precipitated with 260 μL of methanol with 0.4% formic acid. After centrifugation, 150 μL of the supernatants was mixed with 150 μL of water, and a volume of 1 μL of mixture was injected into the chromatographic system. The calibration range of caspofungin was linear over the range of 0.05 to 50 μg/mL with a lower limit of quantification (LLOQ) of 0.05 μg/mL. The samples with concentration that exceeded the upper limit were diluted into half by using blank plasma sample. All the analysis run met the requirement of M10 guideline for bioanalytical method validation and study sample analysis ([15]).
# as §1
# The PopPK model was developed using the non-linear mixed-effects modeling software NONMEM (version 7.5, ICON Development Solutions, Ellicott City, Maryland) with the first-order conditional estimation with interaction (FOCE-I) algorithm. […]
# [4] = cited from earlier work
# Source text: Our results are consistent with three published pediatric PopPK studies that also employed a two-compartment model ([25][–][27]). In contrast, one other pediatric study employed a one-compartment model, probably due to its sparse PK data (48 subjects and 139 observations) ([28]). […] The b ... || Previous studies involving pediatric populations typically included body size on PK parameters. Among them, three studies ([25], [26], [28]) included BSA as a significant covariate on CL and V1 while one study ([27]) emphasized the effect of body weight. In our study, allometric BSA-based allometric scaling yielded lower OFV and AIC compared with weight, LBW, and FFM. The estimated BSA exponent for CL varied considerably across studies, likely reflecting differences in study populations.
# [5] = published pediatric PK estimates
compound,measurement,setting,value
CC[C@H](C)C[C@H](C)CCCCCCCCC(=O)N[C@H]1C[C@@H](O)[C@@H](NCCN)NC(=O)[C@@H]2[C@@H](O)CCN2C(=O)[C@H]([C@H](O)CCN)NC(=O)[C@H]([C@H](O)[C@@H](O)c2ccc(O)cc2)NC(=O)[C@@H]2C[C@@H](O)CN2C(=O)[C@H]([C@@H](C)O)NC1=O [caspofungin],"The effect of AST on Q, final estimate",[1]; exponent on AST/52.5,0.898
same,clearance,"[1]; human, plasma, iv, n = 14, CL = 0.477 x (weight/70)^0.75, read-out: CL, final estimate (converted)",7.95 mL/min
same,"Q, final estimate","[1]; n = 14, Q = 0.512 x (weight/70)^0.75 x (AST/52.5)^0.898",0.512 L/h
same,"V1, final estimate","[1]; n = 14, V1 = 11.8 x (weight/70)^1",11.8 L
same,"V2, final estimate","[1]; n = 14, V2 = 19.2 x (weight/70)^1",19.2 L
same,Culture conversion in patients with positive fungal culture,[2],all of them eventually achieved successful culture conversion to negative
same,"AUCss,24h, range","[3]; ECMO group, n = 4",17.20 to 176.04 µg·h/mL
same,"AUCss,24h, range","[3]; non-ECMO group, n = 25",53.18 to 380.95 µg·h/mL
same,Increase in V1 associated with ECMO,[3]; final PopPK model,18.2 fold
same,"Q (inter-compartment exchange rate), estimate",[3]; final PopPK model,1.01 L/h
same,"V2 (peripheral volume), estimate",[3]; final PopPK model,1.63 L
same,"V2, bootstrap (n = 1,000) median [95% CI]","[3]; final PopPK model, bootstrap n = 1,000",1.89 [1.20–4.29] L
same,"V1 (volume of the central compartment), estimate","[3]; final PopPK model, scaled to 0.79 m^2 (BSA exponent 1), without ECMO",2.22 L
same,AUC(0-t),"[3]; human, ECMO group, n = 4",117 µg·h/mL
same,AUC(0-t),"[3]; human, non-ECMO group, n = 25",194 µg·h/mL
same,clearance,"[3]; human, final PopPK model, typical value scaled to a 0.79 m^2 individual (BSA exponent 0.66), 1-h iv infusion once daily, total plasma, LC-MS/MS, n = 29, read-out: CL, estimate (converted)",3.27 mL/min
same,BSA-normalized CL,"[3]; this study, final PopPK model",0.248 L/h/m^2
same,BSA-normalized V1,"[3]; this study, final PopPK model",2.81 L/m^2
same,Elimination rate constant (ke),"[3]; this study, final PopPK model",0.088 h⁻¹
same,"Elimination rate constant (ke), median",[4]; other four pediatric studies,0.0875 h⁻¹
same,"Elimination rate constant (ke), range",[4]; other four pediatric studies,0.074 to 0.101 h⁻¹
same,"BSA-normalized clearance, median",[4]; [5],0.208 L/h/m^2
same,"BSA-normalized clearance, range",[4]; [5],0.126–0.21 L/h/m^2
same,"BSA-normalized volume of distribution (V1), median",[4]; [5],2.19 L/m^2
same,"BSA-normalized volume of distribution (V1), range",[4]; [5],1.72–2.62 L/m^2
